Measurements published in patent publication US20020037559A1, “PROCESS FOR PRODUCING N-PROTECTED D-PROLINE DERIVATIVES” (priority 1996, published 2002).
“Also recorded” adds a separate entry of the source.

Assays:
N-acyl-L-proline acylase [1] = assay: Inducers of N-acyl-L-proline acylase, resting cells tested against N-Z-L-proline and N-Z-D-proline; assay type: cell-based, Arthrobacter sp. HSZ5; conditions: for Induction of the enzymatic activity (N-acyl-L-proline acylase): 1 g/l added to minimal medium with fructose 5 g/l and L-glutamate 2 g/l, proline detected by HPLC
Description: Arthrobacter sp. HSZ5 was grown in minimal medium (Example 1) using fructose (5 g/l) as the C source and L-glutamate (2 g/l) as the N source.

[2] = tested on: N-acyl-L-proline acylase of Arthrobacter sp. HSZ5; assay: Effect of product inhibition on the activity of the N-acyl-L-proline acylase; assay type: cell-based; conditions: for Inhibition of the enzymatic activity of N-acyl-L-proline acylase: cells pre-incubated 30 minutes (30° C., pH 6.4) with product, then 30° C., pH 6.5, 50 g/l N-Z-L-proline; for Manner of inhibition: from dependence of inhibition on concentration
Description: Arthrobacter sp. HSZ5 was grown (30° C., 120 rpm) in the medium described in Table 1 using fructose (5 […]) as the C or N source. After reaching the desired cell density, the cells were harvested by centrifugation, washed in sodium chloride solution (0.9%) and finally also resuspended in the latter. […] As the 100% value, the result of the batch at pH=7.0 was employed. d) Effect of product inhibition on the activity of the N-acyl-L-proline acylase of Arthrobacter sp. HSZ5 cells having N-acyl-L-proline acylase activity were prepared as described under 9a). […] As the 100% value, the results of the batch was employed here which had been incubated without addition of one of the products.

Arthrobacter sp. HSZ5 [3] = assay: Enzymatic hydrolysis of N-Z-DL-proline by resting cells; assay type: cell-based; conditions: after 60 minutes; N-Z-DL-proline 50 g/l, OD650=30, 30° C., pH 7.0, HPLC
Description: a) Arthrobacter sp. […] The cells were harvested and washed as described previously. The resting cells (OD650=30) were incubated at 30° C. with N-Z-DL-proline (50 g/l) under pH stasis (pH 7.0) and with stirring.

[4] = tested on: Agrobacterium/Rhizobium HSZ30; assay: Growth using N-protected amino acids as the sole N source; assay type: cell-based; conditions: minimal medium, fructose 5 g/l as C source, N source 5 g/l, 30° C., 120 rpm
Description: (§1) Arthrobacter sp. HSZ5, Alcaligenes xylosoxidans ssp. denitrificans HSZ17, Agrobacterium/Rhizobium HSZ30, Bacillus simplex K2, Alcaligenes piechaudii K4 and Pseudomonas putida […] were grown (30° C., 120 rpm) in the medium described in Table 1 using fructose (5 g/l) as the C source. As the sole N source (5 g/l), in each case various N-protected amino acids were added. On reaching a cell density of OD650>0.5, the batch was assessed as positive.

Arthrobacter sp. HSZ5 [5] = assay: as above; assay type: cell-based; conditions: minimal medium, fructose 5 g/l as C source, N source 5 g/l, 30° C., 120 rpm
Description: as §1

Bacillus simplex K2 = assay: as above; assay type: cell-based; conditions: minimal medium, fructose 5 g/l as C source, N source 5 g/l, 30° C., 120 rpm
Description: as §1

Pseudomonas putida K32 = assay: as above; assay type: cell-based; conditions: minimal medium, fructose 5 g/l as C source, N source 5 g/l, 30° C., 120 rpm
Description: as §1

N-acyl-L-proline acylase [6] = assay: Substrate specificity of N-acyl-L-proline acylase; assay type: biochemical, Arthrobacter sp. HSZ5
From the text: The enzymes according to the invention, the N-acyl-L-proline acylases, can be obtained, for example, by customary expert disruption of the described microorganism cells, preferably the enzymes are obtained from Arthrobacter sp. HSZ5 (DSM 10329). For this, for example, the ultrasound, French press or lysozyme method can be used. The enzymes are characterized by the following properties:
N-acyl-L-proline acylase, characterized by the following properties:

[7] = tested on: Alcaligenes piechaudii K4; assay: Growth using N-protected amino acids as the sole N source; assay type: cell-based; conditions: minimal medium, fructose 5 g/l as C source, N source 5 g/l, 30° C., 120 rpm
Description: as §1

[8] = tested on: Alcaligenes xylosoxidans ssp. denitrificans HSZ17; assay: as above; assay type: cell-based; conditions: minimal medium, fructose 5 g/l as C source, N source 5 g/l, 30° C., 120 rpm
Description: as §1

Arthrobacter sp. HSZ5 [9] = assay: Biotransformation of N-Z-DL-proline in 450 l fermenter; assay type: cell-based; conditions: pH 7.5-8.5, 30° C.
From the text: d) Arthrobacter sp. […] The enzymatic activity was then induced by addition of 4 kg of 50% (w/w) N-Z-DL-proline solution. […] The cells were removed by ultracentrifugation from the 320 kg of culture finally obtained and an aliquot (1444 g) of the cell-free fermentation broth was worked up as described under 6a).

## O=C(O)C1CCCN1C(=O)OCc1ccccc1 (racemic) [N-Z-DL-proline]
N-acyl-L-proline acylase [1]
  Induction of the enzymatic activity (N-acyl-L-proline acylase): induced the desired enzymatic activity

## O=C(O)[C@@H]1CCCN1 [L-proline]
[2]
  Inhibition of the enzymatic activity of N-acyl-L-proline acylase: no inhibition of the enzymatic activity at all even in high concentration

## O=C(O)[C@H]1CCCN1C(=O)OCc1ccccc1 [N-Z-D-proline, N-benzyloxycarbonyl-D-proline]
[2]
  Inhibition of the enzymatic activity of N-acyl-L-proline acylase: drastic lowering of the enzyme activity with increasing concentration
  Manner of inhibition: competitive inhibitor
[2]; listed as N-benzyloxycarbonyl-D-proline
  Inhibition of the enzymatic activity of N-acyl-L-proline acylase: inhibitory action
Arthrobacter sp. HSZ5 [3]
  Hydrolysis by resting cells: unchanged

## C[C@H](NC(=O)OCc1ccccc1)C(=O)O [N-Z-L-alanine, N-benzyloxycarbonyl-L-alanine]
[4]
  Growth using N-protected amino acid as the sole N source: + (On reaching a cell density of OD650>0.5, the batch was assessed as positive)
Arthrobacter sp. HSZ5 [5]
  Growth using N-protected amino acid as the sole N source: + (On reaching a cell density of OD650>0.5, the batch was assessed as positive)
Bacillus simplex K2
  Growth using N-protected amino acid as the sole N source: + (On reaching a cell density of OD650>0.5, the batch was assessed as positive)
Pseudomonas putida K32
  Growth using N-protected amino acid as the sole N source: + (On reaching a cell density of OD650>0.5, the batch was assessed as positive)
N-acyl-L-proline acylase [6]
  Substrate specificity (hydrolysis by the enzyme): hydrolysed

## O=C(O)[C@@H]1CCCN1C(=O)OCc1ccccc1 [N-Z-L-proline, N-benzyloxycarbonyl-L-proline]
[4]
  Growth using N-protected amino acid as the sole N source: + (On reaching a cell density of OD650>0.5, the batch was assessed as positive)
[7]
  Growth using N-protected amino acid as the sole N source: + (On reaching a cell density of OD650>0.5, the batch was assessed as positive)
[8]
  Growth using N-protected amino acid as the sole N source: + (On reaching a cell density of OD650>0.5, the batch was assessed as positive)
Arthrobacter sp. HSZ5 [5]
  Growth using N-protected amino acid as the sole N source: + (On reaching a cell density of OD650>0.5, the batch was assessed as positive)
Bacillus simplex K2
  Growth using N-protected amino acid as the sole N source: + (On reaching a cell density of OD650>0.5, the batch was assessed as positive)
Pseudomonas putida K32
  Growth using N-protected amino acid as the sole N source: + (On reaching a cell density of OD650>0.5, the batch was assessed as positive)
N-acyl-L-proline acylase [1]
  Induction of the enzymatic activity (N-acyl-L-proline acylase): induced the desired enzymatic activity
N-acyl-L-proline acylase [1]; resting cells, tested against N-Z-L-proline and N-Z-D-proline
  Acceptance as substrate by induced resting cells: accepted as the substrate
Arthrobacter sp. HSZ5 [3]
  Hydrolysis by resting cells: almost completely hydrolysed
Arthrobacter sp. HSZ5 [9]
  Maximal rate of hydrolysis: about 12 g of N-Z-L-proline hydrolysed/l×h

## O=C(O)[C@@H]1CCC(=O)N1C(=O)OCc1ccccc1 [N-Z-L-pyroglutamate, N-benzyloxycarbonyl-L-pyroglutamate]
[4]
  Growth using N-protected amino acid as the sole N source: + (On reaching a cell density of OD650>0.5, the batch was assessed as positive)
[7]
  Growth using N-protected amino acid as the sole N source: + (On reaching a cell density of OD650>0.5, the batch was assessed as positive)
[8]
  Growth using N-protected amino acid as the sole N source: + (On reaching a cell density of OD650>0.5, the batch was assessed as positive)
Arthrobacter sp. HSZ5 [5]
  Growth using N-protected amino acid as the sole N source: + (On reaching a cell density of OD650>0.5, the batch was assessed as positive)
Bacillus simplex K2
  Growth using N-protected amino acid as the sole N source: + (On reaching a cell density of OD650>0.5, the batch was assessed as positive)
Pseudomonas putida K32
  Growth using N-protected amino acid as the sole N source: + (On reaching a cell density of OD650>0.5, the batch was assessed as positive)

## O=C(N[C@@H](CO)C(=O)O)OCc1ccccc1 [N-Z-L-serine]
Arthrobacter sp. HSZ5 [5]
  Growth using N-protected amino acid as the sole N source: + (On reaching a cell density of OD650>0.5, the batch was assessed as positive)
Pseudomonas putida K32
  Growth using N-protected amino acid as the sole N source: + (On reaching a cell density of OD650>0.5, the batch was assessed as positive)

## CN(CC(=O)O)C(=O)OCc1ccccc1 [N-Z-sarcosine]
Arthrobacter sp. HSZ5 [5]
  Growth using N-protected amino acid as the sole N source: + (On reaching a cell density of OD650>0.5, the batch was assessed as positive)

## CC(=O)N1CCC[C@H]1C(=O)O [N-acetyl-L-proline]
[4]
  Growth using N-protected amino acid as the sole N source: + (On reaching a cell density of OD650>0.5, the batch was assessed as positive)
[8]
  Growth using N-protected amino acid as the sole N source: + (On reaching a cell density of OD650>0.5, the batch was assessed as positive)
Arthrobacter sp. HSZ5 [5]
  Growth using N-protected amino acid as the sole N source: + (On reaching a cell density of OD650>0.5, the batch was assessed as positive)
Pseudomonas putida K32
  Growth using N-protected amino acid as the sole N source: + (On reaching a cell density of OD650>0.5, the batch was assessed as positive)

## O=C(O)[C@@H]1CCCN1C(=O)c1ccccc1 [N-benzoyl-L-proline]
Arthrobacter sp. HSZ5 [5]
  Growth using N-protected amino acid as the sole N source: + (On reaching a cell density of OD650>0.5, the batch was assessed as positive)
Pseudomonas putida K32
  Growth using N-protected amino acid as the sole N source: + (On reaching a cell density of OD650>0.5, the batch was assessed as positive)

## CC(C)COC(=O)N1CCC[C@H]1C(=O)O [N-isobutoxycarbonyl-L-proline]
[7]
  Growth using N-protected amino acid as the sole N source: + (On reaching a cell density of OD650>0.5, the batch was assessed as positive)
Arthrobacter sp. HSZ5 [5]
  Growth using N-protected amino acid as the sole N source: + (On reaching a cell density of OD650>0.5, the batch was assessed as positive)
Pseudomonas putida K32
  Growth using N-protected amino acid as the sole N source: + (On reaching a cell density of OD650>0.5, the batch was assessed as positive)

## O=C(O)[C@@H]1CCCN1C(=O)Cc1ccccc1 [N-phenylacetyl-L-proline]
[7]
  Growth using N-protected amino acid as the sole N source: + (On reaching a cell density of OD650>0.5, the batch was assessed as positive)
Arthrobacter sp. HSZ5 [5]
  Growth using N-protected amino acid as the sole N source: + (On reaching a cell density of OD650>0.5, the batch was assessed as positive)

## O=C(O)CCC(=O)N1CCC[C@H]1C(=O)O [N-succinyl-L-proline]
Pseudomonas putida K32
  Growth using N-protected amino acid as the sole N source: + (On reaching a cell density of OD650>0.5, the batch was assessed as positive)

## OCc1ccccc1 [benzyl alcohol]
[2]
  Inhibition of the enzymatic activity of N-acyl-L-proline acylase: drastic lowering of the enzyme activity with increasing concentration; also recorded: inhibitory action
  Manner of inhibition: non-competitive
